Assay results reported in paper PMC5751305, “In Silico Screening and In Vitro Activity Measurement of Javamide Analogues as Potential p38 MAPK Inhibitors” (International Journal of Molecular Sciences, 2017).

Key:
Type in all cases: biochemical
[1] = biological target: T1, p38 α (Homo sapiens, UniProt Q16539); assay: ADP-Glo kinase assay (Promega CMGC-1 kinase selectivity profiling system), dose response […]
T1 construct: gene MAPK14

[2] = biological target: T1, p38 α; assay: ADP-Glo kinase assay (Promega CMGC-1 kinase selectivity profiling system)
[3] = biological target: T1, p38 α; assay: ADP-Glo kinase assay (Promega CMGC-1), % inhibition at […]

T1 sequence (Q16539 2-360): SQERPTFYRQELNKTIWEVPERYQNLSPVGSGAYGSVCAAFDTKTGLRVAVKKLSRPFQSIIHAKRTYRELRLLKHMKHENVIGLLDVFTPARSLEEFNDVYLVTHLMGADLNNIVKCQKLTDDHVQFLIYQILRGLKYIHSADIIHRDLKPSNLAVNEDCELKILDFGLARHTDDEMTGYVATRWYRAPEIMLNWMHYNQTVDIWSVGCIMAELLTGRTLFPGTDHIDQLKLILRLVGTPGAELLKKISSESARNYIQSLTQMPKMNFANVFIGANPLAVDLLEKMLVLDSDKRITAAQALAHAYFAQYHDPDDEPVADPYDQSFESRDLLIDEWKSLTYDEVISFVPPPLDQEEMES

`CCOC(=O)[C@H](Cc1c[nH]c2ccccc12)NC(=O)/C=C/c1ccc(O)c(O)c1` [Javamide-II-ethyl, javamide-II-O-ethyl ester] gave an IC50 [1] of 9.9 µM.

`COC(=O)[C@H](Cc1c[nH]c2ccccc12)NC(=O)/C=C/c1ccc(O)c(O)c1` [Javamide-II-methyl, Methyl (E)-(3-(3,4-dihydroxyphenyl)acryloyl) tryptophanate] showed an IC50 [2] of 12 µM.

For `O=C(/C=C/c1ccc(O)c(O)c1)N[C@@H](Cc1c[nH]c2ccccc12)C(=O)O` [Javamide-II, javamide-II], the inhibition at 5 µM [3] was 31.5%.
